This passage reports Kd results from ChEMBL document CHEMBL3991601, “The target landscape of clinical kinase drugs” (Science, 2017).

Calls of active or inactive are those of the source. Rule as the data show it, for most assays here: actives have a measured Kd and inactives only a lower limit.

Assay [1] has as its target Serine/threonine-protein kinase/endoribonuclease IRE1 (Homo sapiens, UniProt O75460).
The target of assay [2] is Glycogen synthase kinase-3 beta (Homo sapiens, UniProt P49841).
The target in assay [3] is T1, Signal recognition particle receptor subunit alpha (Homo sapiens, UniProt P08240).
T1 sequence (P08240 whole entry): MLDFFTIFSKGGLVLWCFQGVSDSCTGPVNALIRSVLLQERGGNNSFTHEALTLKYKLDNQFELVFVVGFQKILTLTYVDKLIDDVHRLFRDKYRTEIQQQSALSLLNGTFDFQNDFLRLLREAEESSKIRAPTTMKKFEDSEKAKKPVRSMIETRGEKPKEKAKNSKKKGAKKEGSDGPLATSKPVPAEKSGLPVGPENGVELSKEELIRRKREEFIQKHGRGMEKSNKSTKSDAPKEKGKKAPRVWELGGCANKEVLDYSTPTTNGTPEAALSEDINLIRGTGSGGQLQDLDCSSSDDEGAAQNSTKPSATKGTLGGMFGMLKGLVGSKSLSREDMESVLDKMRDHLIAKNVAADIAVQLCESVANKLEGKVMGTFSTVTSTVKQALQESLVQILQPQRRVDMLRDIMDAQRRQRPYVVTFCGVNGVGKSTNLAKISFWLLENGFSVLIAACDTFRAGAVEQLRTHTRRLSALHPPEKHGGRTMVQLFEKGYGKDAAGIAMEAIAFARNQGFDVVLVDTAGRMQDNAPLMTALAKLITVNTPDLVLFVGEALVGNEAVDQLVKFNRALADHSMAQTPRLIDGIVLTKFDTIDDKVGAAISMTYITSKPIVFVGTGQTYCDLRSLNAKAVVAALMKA

Assay [4] concerns the target Serine/threonine-protein kinase B-raf (Homo sapiens, UniProt P15056).
Another assay concerns the target Ephrin type-A receptor 4 (Homo sapiens, UniProt P54764).
Assay [5] deals with Mitogen-activated protein kinase 10 (Homo sapiens, UniProt P53779).
In assay [6] the target is Cyclin-dependent kinase 12 (Homo sapiens, UniProt Q9NYV4).
The target of assay [7] is Dual specificity protein kinase CLK1 (Homo sapiens, UniProt P49759).
The target in assay [8] is Adenylate kinase 2, mitochondrial (Homo sapiens, UniProt P54819).
The target in assay [9] is T2, Mitogen-activated protein kinase 15 (Homo sapiens, UniProt Q8TD08).
T2 sequence (Q8TD08 whole entry): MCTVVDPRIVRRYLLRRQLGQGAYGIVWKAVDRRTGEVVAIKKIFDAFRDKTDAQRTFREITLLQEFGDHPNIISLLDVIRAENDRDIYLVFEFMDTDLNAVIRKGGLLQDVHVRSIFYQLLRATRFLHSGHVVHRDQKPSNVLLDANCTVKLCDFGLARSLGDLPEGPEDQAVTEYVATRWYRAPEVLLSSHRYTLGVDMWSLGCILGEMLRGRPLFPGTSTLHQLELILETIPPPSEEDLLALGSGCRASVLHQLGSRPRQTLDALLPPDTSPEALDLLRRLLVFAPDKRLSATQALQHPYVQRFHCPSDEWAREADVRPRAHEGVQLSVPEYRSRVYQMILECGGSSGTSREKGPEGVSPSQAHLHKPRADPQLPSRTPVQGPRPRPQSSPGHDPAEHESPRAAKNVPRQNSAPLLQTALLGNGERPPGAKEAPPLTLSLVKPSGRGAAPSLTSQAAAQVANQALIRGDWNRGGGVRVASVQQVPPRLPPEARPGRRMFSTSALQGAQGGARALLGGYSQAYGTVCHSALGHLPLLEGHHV

Assay [10] concerns the target Insulin-like growth factor 1 receptor (Homo sapiens, UniProt P08069).
Assay [11] deals with Casein kinase I isoform epsilon (Homo sapiens, UniProt P49674).
Assay [12] deals with Cyclin-dependent kinase 5 (Homo sapiens, UniProt Q00535).
The target of assay [13] is T3, cGMP-dependent protein kinase 1 (Homo sapiens, UniProt Q13976).
T3 sequence (Q13976 whole entry): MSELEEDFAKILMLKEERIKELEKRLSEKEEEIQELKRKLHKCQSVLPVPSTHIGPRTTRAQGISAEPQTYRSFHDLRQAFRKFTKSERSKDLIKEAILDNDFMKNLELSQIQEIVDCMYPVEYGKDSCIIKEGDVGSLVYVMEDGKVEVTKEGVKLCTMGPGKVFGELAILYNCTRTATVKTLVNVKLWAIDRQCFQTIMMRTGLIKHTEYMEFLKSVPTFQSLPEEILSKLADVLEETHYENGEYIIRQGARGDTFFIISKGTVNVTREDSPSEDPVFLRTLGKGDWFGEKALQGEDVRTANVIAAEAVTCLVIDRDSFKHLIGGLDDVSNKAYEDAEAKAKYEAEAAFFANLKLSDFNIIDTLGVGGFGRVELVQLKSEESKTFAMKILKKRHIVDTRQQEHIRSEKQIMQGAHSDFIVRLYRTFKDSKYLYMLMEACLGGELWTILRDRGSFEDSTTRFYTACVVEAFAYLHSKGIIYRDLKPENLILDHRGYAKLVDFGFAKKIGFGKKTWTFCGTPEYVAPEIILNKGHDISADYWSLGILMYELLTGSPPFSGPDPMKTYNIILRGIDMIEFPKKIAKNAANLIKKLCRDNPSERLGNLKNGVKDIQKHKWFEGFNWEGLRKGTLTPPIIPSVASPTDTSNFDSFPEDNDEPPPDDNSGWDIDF

The target of assay [14] is Cyclin-dependent kinase 4 (Homo sapiens, UniProt P11802).
For assay [15], the target named is T4, EKC/KEOPS complex subunit TP53RK (Homo sapiens, UniProt Q96S44).
T4 sequence (Q96S44 whole entry): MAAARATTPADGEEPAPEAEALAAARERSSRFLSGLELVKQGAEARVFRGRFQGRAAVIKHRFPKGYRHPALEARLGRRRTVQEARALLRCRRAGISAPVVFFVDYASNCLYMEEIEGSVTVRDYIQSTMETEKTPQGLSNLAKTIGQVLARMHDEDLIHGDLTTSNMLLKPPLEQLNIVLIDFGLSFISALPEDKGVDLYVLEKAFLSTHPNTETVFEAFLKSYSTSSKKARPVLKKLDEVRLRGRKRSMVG
Also: in the data inactive means no Kd found up to 30 µM.

Sequence of Cyclin-dependent kinase 4 (P11802 whole entry): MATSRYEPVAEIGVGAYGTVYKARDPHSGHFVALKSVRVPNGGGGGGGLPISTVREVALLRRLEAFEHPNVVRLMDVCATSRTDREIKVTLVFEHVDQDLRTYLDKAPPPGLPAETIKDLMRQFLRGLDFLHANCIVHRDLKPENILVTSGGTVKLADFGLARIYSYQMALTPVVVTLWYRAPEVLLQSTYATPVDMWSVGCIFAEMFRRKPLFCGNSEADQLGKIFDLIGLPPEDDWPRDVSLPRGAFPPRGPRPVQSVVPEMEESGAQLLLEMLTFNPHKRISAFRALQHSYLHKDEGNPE
Sequence of Cyclin-dependent kinase 5 (Q00535 whole entry): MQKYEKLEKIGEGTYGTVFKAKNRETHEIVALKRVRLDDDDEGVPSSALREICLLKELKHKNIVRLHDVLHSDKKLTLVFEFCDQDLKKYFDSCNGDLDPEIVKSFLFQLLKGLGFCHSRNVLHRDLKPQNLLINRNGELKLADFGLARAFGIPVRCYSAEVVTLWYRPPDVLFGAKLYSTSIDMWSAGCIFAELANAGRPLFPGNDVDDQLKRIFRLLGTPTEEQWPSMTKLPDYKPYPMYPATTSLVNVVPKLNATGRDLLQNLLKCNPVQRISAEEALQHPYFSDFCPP
Sequence of Insulin-like growth factor 1 receptor (P08069 31-736 limits assumed): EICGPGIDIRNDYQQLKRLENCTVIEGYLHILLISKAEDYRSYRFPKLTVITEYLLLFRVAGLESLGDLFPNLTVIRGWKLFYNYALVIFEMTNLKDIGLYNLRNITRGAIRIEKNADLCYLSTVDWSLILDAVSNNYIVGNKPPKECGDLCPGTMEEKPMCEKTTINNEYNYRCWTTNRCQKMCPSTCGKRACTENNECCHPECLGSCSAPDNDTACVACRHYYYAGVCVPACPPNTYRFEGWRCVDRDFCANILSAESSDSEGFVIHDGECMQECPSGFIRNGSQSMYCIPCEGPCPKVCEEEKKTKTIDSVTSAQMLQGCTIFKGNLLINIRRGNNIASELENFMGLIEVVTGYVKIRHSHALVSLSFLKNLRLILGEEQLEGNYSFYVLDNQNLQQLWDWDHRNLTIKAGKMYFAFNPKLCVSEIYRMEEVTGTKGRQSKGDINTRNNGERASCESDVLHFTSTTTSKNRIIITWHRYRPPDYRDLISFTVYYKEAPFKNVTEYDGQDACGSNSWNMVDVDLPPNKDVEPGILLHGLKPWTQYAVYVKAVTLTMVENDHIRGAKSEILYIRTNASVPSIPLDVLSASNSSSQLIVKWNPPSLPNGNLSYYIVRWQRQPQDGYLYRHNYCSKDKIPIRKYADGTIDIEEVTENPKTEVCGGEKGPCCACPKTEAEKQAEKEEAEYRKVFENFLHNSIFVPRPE
Sequence of Insulin-like growth factor 1 receptor (P08069 741-1367 limits assumed): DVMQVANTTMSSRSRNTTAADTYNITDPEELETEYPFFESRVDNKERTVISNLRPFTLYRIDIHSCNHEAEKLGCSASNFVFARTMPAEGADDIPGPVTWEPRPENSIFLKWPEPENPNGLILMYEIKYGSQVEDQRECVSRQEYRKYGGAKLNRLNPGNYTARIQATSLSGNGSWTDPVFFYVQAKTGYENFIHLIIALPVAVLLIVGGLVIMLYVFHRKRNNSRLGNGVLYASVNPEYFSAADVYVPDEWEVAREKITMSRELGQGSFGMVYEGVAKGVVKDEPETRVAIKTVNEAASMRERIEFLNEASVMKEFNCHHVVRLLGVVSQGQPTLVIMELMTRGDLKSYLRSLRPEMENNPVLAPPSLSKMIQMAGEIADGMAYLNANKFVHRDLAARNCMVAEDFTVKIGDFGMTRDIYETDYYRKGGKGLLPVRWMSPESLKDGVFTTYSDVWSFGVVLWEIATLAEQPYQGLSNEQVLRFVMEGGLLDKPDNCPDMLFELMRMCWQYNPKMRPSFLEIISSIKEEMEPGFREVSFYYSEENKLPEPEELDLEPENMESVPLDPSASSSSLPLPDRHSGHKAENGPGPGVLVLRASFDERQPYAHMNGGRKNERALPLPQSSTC
Sequence of Serine/threonine-protein kinase B-raf (P15056 whole entry): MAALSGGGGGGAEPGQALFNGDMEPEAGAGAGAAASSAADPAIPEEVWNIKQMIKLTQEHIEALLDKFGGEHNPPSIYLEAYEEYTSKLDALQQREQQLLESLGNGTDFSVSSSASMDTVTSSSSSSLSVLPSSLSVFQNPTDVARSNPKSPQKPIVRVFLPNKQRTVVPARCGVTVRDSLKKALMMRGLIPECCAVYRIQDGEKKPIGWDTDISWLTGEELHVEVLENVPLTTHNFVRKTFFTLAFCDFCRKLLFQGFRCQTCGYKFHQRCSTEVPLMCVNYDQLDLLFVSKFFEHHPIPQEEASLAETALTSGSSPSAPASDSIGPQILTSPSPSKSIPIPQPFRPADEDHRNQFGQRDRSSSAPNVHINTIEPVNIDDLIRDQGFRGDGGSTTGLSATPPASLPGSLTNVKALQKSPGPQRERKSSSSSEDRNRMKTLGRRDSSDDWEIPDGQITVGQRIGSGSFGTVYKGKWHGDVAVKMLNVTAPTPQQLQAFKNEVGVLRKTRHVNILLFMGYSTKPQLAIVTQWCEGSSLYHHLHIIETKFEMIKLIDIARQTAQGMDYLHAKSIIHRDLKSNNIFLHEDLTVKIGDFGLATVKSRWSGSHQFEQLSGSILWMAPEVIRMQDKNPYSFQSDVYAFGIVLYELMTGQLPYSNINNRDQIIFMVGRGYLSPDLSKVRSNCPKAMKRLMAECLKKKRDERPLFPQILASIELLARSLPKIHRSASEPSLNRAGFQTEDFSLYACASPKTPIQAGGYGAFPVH
Sequence of Serine/threonine-protein kinase/endoribonuclease IRE1 (O75460 whole entry): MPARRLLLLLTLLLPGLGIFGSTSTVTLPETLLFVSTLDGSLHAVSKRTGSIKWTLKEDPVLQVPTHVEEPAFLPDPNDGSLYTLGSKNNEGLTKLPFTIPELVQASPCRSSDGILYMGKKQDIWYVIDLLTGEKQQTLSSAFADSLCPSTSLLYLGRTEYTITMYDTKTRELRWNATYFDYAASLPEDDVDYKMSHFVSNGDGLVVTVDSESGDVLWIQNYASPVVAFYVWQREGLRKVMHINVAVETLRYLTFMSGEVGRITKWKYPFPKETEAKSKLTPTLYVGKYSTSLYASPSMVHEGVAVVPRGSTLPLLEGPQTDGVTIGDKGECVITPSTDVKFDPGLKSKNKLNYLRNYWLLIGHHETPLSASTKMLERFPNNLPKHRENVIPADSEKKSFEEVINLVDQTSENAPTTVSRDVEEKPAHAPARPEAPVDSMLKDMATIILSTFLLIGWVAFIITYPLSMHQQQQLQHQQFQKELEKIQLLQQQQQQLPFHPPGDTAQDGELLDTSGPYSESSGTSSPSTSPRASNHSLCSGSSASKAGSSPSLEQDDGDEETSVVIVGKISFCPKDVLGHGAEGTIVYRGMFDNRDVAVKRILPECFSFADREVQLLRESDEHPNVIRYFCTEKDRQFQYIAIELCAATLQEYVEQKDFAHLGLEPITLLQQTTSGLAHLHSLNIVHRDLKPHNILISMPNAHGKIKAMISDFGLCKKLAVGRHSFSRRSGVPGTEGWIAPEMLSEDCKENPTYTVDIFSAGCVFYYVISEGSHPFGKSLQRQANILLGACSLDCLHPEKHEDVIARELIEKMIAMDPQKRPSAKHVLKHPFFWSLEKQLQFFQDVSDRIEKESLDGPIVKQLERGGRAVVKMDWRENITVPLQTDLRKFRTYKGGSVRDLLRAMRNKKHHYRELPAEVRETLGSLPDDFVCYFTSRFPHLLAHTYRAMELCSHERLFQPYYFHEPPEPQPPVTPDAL
Sequence of Mitogen-activated protein kinase 10 (P53779 whole entry): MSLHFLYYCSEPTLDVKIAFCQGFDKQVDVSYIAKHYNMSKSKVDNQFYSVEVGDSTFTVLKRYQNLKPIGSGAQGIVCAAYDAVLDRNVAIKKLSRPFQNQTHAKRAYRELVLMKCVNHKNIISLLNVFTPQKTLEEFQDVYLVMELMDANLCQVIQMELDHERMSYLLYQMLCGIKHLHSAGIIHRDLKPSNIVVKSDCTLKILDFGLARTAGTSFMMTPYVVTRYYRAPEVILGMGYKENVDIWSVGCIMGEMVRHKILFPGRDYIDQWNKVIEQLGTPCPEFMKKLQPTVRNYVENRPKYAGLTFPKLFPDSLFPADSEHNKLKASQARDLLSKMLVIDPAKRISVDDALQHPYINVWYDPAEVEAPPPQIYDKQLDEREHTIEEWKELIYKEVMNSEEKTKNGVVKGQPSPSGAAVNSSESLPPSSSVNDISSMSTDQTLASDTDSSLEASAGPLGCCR
Sequence of Dual specificity protein kinase CLK1 (P49759 whole entry): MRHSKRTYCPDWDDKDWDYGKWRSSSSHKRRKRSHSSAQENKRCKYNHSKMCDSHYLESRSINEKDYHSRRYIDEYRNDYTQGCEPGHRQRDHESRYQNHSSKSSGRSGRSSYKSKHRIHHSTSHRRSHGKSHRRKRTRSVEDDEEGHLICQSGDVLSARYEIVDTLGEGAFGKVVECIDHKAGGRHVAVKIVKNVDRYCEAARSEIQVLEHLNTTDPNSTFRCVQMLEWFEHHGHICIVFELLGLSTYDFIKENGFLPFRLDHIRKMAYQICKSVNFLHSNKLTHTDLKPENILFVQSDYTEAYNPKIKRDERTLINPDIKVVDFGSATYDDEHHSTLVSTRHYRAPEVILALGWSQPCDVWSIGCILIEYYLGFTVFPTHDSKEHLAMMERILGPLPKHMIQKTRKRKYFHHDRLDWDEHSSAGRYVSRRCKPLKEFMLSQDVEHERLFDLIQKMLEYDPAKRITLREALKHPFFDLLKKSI

For `Cc1nc(NC(=O)N2CCC[C@H]2C(N)=O)sc1-c1ccnc(C(C)(C)C(F)(F)F)c1` [ALPELISIB], the Kd (in assay [1]; in [2]; in assay [3]; in [4]; on Ephrin type-A receptor 4; in assay [5]) was > 30 µM (inactive) in each case. In addition, the Kd in assay [6], in assay [7], in assay [8], in [9], in [10] and in assay [11] was > 30 µM (inactive) in each case. Also, the Kd in assay [12], in assay [13], in [14] and in assay [15] was > 30 µM (inactive) in each case.
Consider `Cc1csc(-c2nnc(Nc3ccc(Oc4ncccc4-c4ccnc(N)n4)cc3)c3ccccc23)c1` [AMG-900], for which the Kd is > 30 µM (inactive) in [1]; > 30 µM (inactive) in assay [2]; > 30 µM (inactive) in assay [3]; 2.48 µM (active) in assay [4]; > 30 µM (inactive) at Ephrin type-A receptor 4; > 30 µM (inactive) in assay [5]. For the same compound, the Kd in [6] was 2.98 µM; in assay [7] it was 2.46 µM (active); in assay [8] it was > 30 µM (inactive); in assay [9], > 30 µM (inactive); in assay [10] it was > 30 µM (inactive); in assay [11] it was > 30 µM (inactive). The Kd in assay [12], in [13], in assay [14] and in assay [15] was > 30 µM (inactive) in each case.
As to `C=CC(=O)Nc1cc2c(Nc3ccc(F)c(Cl)c3)ncnc2cc1C#CC(C)(C)N1CCN(C)CC1` [AV-412 FREE BASE], the Kd (in [1]; in assay [2]; in assay [3]; in assay [4]; at Ephrin type-A receptor 4; in assay [5]) was > 30 µM (inactive) in each case. Further, the Kd in [6], in assay [7], in assay [8], in [9], in assay [10] and in assay [11] was > 30 µM (inactive) each time. Further, the Kd in [12], in assay [13], in assay [14] and in assay [15] was > 30 µM (inactive) throughout.
Take `Cc1cc(C(=O)NOCCO)c(Nc2ccc(I)cc2F)n(C)c1=O` [AZD-8330]: the Kd (in assay [1]; in [2]; in [3]; in [4]; at Ephrin type-A receptor 4; in assay [5]) was > 30 µM (inactive) each time. The Kd in assay [6], in assay [7], in [8], in assay [9], in [10] and in assay [11] was > 30 µM (inactive) in each case. Moreover, the Kd in [12], in [13], in [14] and in assay [15] was > 30 µM (inactive) throughout.
On to `Cn1cnc2c(F)c(Nc3ccc(Br)cc3F)c(C(=O)NOCCO)cc21` [BINIMETINIB], for which the Kd (in [1]; in assay [2]; in assay [3]; in assay [4]; at Ephrin type-A receptor 4; in [5]) was > 30 µM (inactive) each time. The Kd in assay [6], in [7], in assay [8], in [9], in assay [10] and in assay [11] was > 30 µM (inactive) in each case. The Kd in assay [12], in [13], in [14] and in assay [15] was > 30 µM (inactive) each time.
For `CCn1c(C(=O)N(C2CC2)C2CC2)cc2c3c(ncn3C)c(Nc3cc(C)n(C)n3)nc21` [BMS-911543], the Kd (in [1]; in assay [2]; in assay [3]; in assay [4]; at Ephrin type-A receptor 4; in assay [5]) was > 30 µM (inactive) throughout. Moreover, the Kd in assay [6], in [7], in [8], in [9], in assay [10] and in assay [11] was > 30 µM (inactive) each time. The Kd in [12], in assay [13], in assay [14] and in [15] was > 30 µM (inactive) in each case.
`COc1cc2ncnc(Oc3cccc(NC(=O)Nc4cc(C(C)(C)C(F)(F)F)on4)c3)c2cc1OC` [CEP-32496]: the Kd is > 30 µM (inactive) in assay [1]; > 30 µM (inactive) in assay [2]; > 30 µM (inactive) in [3]; 2.85 µM (active) in assay [4]; > 30 µM (inactive) on Ephrin type-A receptor 4; 0.378 µM in [5]. For the same compound, the Kd in [6], in assay [7], in [8], in assay [9], in assay [10] and in assay [11] was > 30 µM (inactive) in each case. In addition, the Kd in assay [12], in [13], in [14] and in assay [15] was > 30 µM (inactive) throughout.
